The values that follow come from ChEMBL document CHEMBL2062364, “Discovery and optimization of new benzimidazole- and benzoxazole-pyrimidone selective PI3Kβ inhibitors for the treatment of phosphatase and TENsin homologue (PTEN)-deficient cancers” (J Med Chem, 2012).

For data set [1], the target named is T1, Phosphatidylinositol 4,5-bisphosphate 3-kinase catalytic subunit beta isoform (Homo sapiens, UniProt P42338). Kind of data set: Inhibition of human PI3Kbeta-mediated Akt phosphorylation at Ser473 residue expressed in PTEN-deficient human PC3 cells by chemiluminescence assay. The data set is classed as cell-based, PC-3.
The target of data set [2] is Phosphatidylinositol 4,5-bisphosphate 3-kinase catalytic subunit alpha isoform (Homo sapiens, UniProt P42336). Kind of data set: Inhibition of N-terminus poly-His tagged human PI3Kalpha expressed in baculovirus infected insect sf9 cells coexpressing p85alpha using PI(4,5)P2 as substrate preincubated with compound for 15 mins measured after 10 mins by HTRF assay. A general note: In TR-FRET formats the signal depends on donor and acceptor labels being close together.

Data set [3] deals with T1, Phosphatidylinositol 4,5-bisphosphate 3-kinase catalytic subunit beta isoform. Kind of data set: Inhibition of N-terminus poly-His tagged human PI3Kbeta expressed in baculovirus infected insect […] cells coexpressing p85alpha using PI(4,5)P2 as substrate preincubated with compound for 15 mins measured after 10 mins by HTRF assay.
Data set [4] deals with T2, Phosphatidylinositol 4,5-bisphosphate 3-kinase catalytic subunit delta isoform (Homo sapiens, UniProt O00329).
T2 sequence (O00329 whole entry): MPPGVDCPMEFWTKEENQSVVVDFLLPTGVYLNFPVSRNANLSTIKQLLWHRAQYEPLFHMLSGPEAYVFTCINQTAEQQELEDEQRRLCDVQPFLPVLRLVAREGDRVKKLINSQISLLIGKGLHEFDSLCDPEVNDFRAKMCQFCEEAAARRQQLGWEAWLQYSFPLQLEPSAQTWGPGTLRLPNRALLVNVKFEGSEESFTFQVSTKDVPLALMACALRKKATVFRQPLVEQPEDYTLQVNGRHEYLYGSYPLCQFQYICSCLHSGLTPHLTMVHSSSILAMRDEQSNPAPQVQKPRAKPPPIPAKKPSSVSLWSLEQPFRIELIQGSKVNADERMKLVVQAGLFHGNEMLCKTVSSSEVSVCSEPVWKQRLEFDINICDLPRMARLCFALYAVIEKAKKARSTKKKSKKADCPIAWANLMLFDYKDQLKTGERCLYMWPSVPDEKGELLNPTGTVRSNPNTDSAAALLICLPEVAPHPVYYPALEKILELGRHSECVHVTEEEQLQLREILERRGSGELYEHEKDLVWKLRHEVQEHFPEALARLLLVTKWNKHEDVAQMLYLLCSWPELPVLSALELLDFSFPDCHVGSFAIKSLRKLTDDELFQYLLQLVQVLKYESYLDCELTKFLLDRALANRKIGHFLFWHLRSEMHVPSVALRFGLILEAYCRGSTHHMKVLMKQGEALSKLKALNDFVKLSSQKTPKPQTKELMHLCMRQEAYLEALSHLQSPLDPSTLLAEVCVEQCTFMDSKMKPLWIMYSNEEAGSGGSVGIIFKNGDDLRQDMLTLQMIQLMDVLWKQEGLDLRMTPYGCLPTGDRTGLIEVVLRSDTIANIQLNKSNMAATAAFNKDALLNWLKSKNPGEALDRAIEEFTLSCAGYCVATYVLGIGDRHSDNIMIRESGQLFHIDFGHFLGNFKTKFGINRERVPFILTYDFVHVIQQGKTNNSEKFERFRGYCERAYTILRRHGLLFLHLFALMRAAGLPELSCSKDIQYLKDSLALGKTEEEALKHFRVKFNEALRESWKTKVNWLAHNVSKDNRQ
Kind of data set: Inhibition of poly-His tagged human PI3Kdelta expressed in baculovirus infected insect sf9 cells coexpressing p85alpha using PI(4,5)P2 as substrate preincubated with compound for 15 mins measured after 10 mins by HTRF assay.

Data set [5] deals with Phosphatidylinositol 4,5-bisphosphate 3-kinase catalytic subunit gamma isoform (Homo sapiens, UniProt P48736). The data set is described as follows: Inhibition of N-terminus poly-His tagged human PI3Kgamma expressed in baculovirus infected insect sf9 cells using PI(4,5)P2 as substrate preincubated with compound for 15 mins measured after 10 mins by HTRF assay.
Data set [6] concerns the target Serine/threonine-protein kinase mTOR (Homo sapiens, UniProt P42345). Kind of data set: Inhibition of mTOR.
Data set [7] can be described thus: Apparent permeability of the compound across human Caco2 cells. The data set is classed as ADME, cell-based. As to conditions: Caco-2.
In another data set the target is Cytochrome P450 3A4 (Homo sapiens, UniProt P08684). Kind of data set: Inhibition of human recombinant CPY3A4.
Data set [8] in a line: Drug metabolism in human liver microsomes. Note: time not given here. The data set is classed as ADME, Microsome. As to conditions: read-out: Drug metabolism.
A short description of data set [9]: Drug metabolism in mouse liver microsomes. Note: time not given here. The data set is classed as ADME, Microsome. As to conditions: read-out: Drug metabolism.

T1 sequence (P42338 whole entry, canonical isoform): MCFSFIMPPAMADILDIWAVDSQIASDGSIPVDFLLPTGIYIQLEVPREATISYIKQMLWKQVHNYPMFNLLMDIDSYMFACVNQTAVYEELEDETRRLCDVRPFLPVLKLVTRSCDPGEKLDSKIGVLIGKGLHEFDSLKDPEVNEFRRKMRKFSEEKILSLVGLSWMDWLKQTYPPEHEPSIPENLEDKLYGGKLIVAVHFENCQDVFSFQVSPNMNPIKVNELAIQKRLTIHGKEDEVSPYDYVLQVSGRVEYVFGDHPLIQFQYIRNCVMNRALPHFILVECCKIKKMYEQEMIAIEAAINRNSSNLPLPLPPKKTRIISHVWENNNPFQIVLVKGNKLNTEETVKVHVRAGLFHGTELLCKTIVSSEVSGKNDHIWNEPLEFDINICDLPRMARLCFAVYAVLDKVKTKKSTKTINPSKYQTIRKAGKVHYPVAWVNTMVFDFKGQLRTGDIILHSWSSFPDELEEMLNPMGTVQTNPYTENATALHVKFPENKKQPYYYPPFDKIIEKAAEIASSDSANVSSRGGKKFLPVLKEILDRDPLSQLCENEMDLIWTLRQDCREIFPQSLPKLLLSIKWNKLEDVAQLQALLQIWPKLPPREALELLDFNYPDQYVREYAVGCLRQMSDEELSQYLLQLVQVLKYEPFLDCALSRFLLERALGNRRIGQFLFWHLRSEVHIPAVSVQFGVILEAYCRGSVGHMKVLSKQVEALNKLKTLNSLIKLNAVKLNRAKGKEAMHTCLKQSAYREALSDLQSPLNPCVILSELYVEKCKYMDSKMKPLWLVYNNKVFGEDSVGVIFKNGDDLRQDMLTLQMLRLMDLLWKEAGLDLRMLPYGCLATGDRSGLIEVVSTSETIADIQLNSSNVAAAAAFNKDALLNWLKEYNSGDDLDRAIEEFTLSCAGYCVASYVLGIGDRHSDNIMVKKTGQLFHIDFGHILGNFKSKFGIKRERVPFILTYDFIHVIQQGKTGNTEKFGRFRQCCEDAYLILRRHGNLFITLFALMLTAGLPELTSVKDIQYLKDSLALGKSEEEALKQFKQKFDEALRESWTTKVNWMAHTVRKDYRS
Phosphatidylinositol 4,5-bisphosphate 3-kinase catalytic subunit alpha isoform, sequence (P42336 whole entry, canonical isoform): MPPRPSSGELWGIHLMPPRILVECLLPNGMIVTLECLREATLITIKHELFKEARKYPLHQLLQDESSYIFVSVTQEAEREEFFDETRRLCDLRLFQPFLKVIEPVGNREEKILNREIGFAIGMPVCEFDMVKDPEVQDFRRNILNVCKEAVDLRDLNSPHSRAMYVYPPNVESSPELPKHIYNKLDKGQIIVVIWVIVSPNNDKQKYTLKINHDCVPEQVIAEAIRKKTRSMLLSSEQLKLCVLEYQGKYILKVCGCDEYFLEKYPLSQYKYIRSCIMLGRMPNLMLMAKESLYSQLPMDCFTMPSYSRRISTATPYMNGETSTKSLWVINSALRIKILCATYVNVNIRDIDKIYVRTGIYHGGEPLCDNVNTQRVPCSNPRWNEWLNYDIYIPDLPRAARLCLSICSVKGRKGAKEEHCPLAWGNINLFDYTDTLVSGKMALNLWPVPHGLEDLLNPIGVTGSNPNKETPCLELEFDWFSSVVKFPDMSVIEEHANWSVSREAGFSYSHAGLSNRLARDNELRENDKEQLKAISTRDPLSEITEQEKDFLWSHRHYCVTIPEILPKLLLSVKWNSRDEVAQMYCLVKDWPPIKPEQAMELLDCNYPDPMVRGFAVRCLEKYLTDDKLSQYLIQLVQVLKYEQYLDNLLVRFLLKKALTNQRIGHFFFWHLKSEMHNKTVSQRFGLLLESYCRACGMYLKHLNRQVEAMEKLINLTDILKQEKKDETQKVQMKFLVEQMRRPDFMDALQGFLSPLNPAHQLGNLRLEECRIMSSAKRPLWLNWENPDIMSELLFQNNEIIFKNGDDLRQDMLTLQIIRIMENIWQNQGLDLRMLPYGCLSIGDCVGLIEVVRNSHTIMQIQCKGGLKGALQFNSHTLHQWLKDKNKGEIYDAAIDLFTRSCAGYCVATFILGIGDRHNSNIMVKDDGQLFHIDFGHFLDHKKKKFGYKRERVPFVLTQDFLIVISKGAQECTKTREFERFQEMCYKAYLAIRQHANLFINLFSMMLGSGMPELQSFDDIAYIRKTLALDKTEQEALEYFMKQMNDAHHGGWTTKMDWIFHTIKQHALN
Phosphatidylinositol 4,5-bisphosphate 3-kinase catalytic subunit gamma isoform, sequence (P48736 whole entry, canonical isoform): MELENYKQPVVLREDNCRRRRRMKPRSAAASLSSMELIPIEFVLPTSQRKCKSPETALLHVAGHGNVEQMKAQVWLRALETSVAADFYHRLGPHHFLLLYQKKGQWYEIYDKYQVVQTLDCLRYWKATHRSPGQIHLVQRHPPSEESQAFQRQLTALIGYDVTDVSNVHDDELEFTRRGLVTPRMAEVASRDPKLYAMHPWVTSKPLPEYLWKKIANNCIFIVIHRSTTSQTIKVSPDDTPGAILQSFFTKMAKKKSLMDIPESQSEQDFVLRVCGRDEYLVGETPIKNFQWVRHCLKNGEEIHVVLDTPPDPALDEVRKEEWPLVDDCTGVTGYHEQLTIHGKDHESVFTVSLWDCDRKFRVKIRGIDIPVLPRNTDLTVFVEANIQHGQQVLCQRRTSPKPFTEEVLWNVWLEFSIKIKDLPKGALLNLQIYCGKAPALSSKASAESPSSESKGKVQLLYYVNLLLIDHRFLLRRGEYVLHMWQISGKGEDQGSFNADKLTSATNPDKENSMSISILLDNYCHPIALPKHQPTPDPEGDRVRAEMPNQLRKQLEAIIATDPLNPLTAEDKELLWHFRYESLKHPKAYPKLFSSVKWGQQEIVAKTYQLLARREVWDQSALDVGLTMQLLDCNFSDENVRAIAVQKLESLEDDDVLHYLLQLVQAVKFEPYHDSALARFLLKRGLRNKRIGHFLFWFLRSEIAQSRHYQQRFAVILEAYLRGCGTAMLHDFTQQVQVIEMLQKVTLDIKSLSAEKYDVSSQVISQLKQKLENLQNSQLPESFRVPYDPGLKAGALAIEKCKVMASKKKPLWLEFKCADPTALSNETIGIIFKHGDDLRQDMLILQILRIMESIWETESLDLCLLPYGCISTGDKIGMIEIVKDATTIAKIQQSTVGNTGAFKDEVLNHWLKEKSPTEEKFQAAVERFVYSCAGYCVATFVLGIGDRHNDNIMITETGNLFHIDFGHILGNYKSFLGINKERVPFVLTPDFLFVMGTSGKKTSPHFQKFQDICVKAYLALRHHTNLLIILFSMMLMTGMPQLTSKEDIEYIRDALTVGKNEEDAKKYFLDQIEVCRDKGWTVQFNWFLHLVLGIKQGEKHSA
Cytochrome P450 3A4, sequence (P08684 whole entry): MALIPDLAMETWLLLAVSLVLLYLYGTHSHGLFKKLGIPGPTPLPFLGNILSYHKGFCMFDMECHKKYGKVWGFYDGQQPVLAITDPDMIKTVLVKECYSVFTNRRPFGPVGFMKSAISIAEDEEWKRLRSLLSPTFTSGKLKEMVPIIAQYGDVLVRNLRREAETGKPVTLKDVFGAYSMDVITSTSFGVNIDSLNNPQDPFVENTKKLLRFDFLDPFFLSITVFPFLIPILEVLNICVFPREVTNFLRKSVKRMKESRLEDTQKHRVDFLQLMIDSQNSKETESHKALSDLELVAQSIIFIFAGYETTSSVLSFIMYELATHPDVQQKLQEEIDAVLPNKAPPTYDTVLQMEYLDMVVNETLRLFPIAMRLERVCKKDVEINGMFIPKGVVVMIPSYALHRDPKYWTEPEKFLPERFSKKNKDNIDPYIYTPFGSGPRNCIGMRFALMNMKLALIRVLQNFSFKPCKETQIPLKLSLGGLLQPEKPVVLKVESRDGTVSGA

One may read the IC50 as the midpoint of a concentration-inhibition curve. As for `Cc1cc(F)ccc1Oc1cccc2c(=O)cc(N3CCOCC3)[nH]c12`, the IC50 is 72 nM in [1]; over 10000 nM in data set [2]; 32 nM in data set [3]; 166 nM in data set [4]; over 10000 nM in [5].

For the compound `O=c1cc(N2CCOCC2)nc(Cc2nc3ccccc3[nH]2)[nH]1`, the IC50 is 665 nM in data set [1]; over 10000 nM in data set [2]; 158 nM in data set [3]; 2870 nM in [4]; over 10000 nM in data set [5]; over 10000 nM in data set [6].

For the compound `Cn1c(Cc2nc3cc(F)ccc3[nH]2)nc(N2CCOCC2)cc1=O`, the IC50 is over 10000 nM in [2]; 739 nM in data set [3]; 5720 nM in data set [4]; over 10000 nM in data set [5]; over 10000 nM in data set [6].

Turning to `Cn1c(Cc2nc(N3CCOCC3)cc(=O)[nH]2)nc2ccc(F)cc21`, the IC50 in [1] was 289 nM; in data set [2], over 10000 nM; in data set [3], 290 nM; in [4] it was 1060 nM; in data set [5], over 10000 nM; in data set [6], over 10000 nM.

Regarding `Cc1ccc2[nH]c(Cc3nc(N4CCOCC4)cc(=O)[nH]3)nc2c1`, the IC50 in data set [1] is 140 nM; in [2] it was 9880 nM; in [3], 450 nM; in [4], 2210 nM; in [5], over 10000 nM; in data set [6] it was over 10000 nM.

Regarding `COc1ccc2[nH]c(Cc3nc(N4CCOCC4)cc(=O)[nH]3)nc2c1`, the IC50 in data set [1] was 475 nM; in data set [2], over 10000 nM; in data set [3], 193 nM; in [4] it was 397 nM; in [5], over 10000 nM; in data set [6] it was over 10000 nM.

On to `O=c1cc(N2CCOCC2)nc(Cc2nc3ccc(C(F)(F)F)cc3[nH]2)[nH]1`, for which the IC50 in data set [1] was 961 nM; in data set [2], over 10000 nM; in data set [3] it was 386 nM; in data set [4], 2850 nM; in [5], over 10000 nM; in data set [6], over 10000 nM.

As a reminder, the Papp is the rate of passage across a membrane or cell layer, normalised by area and donor concentration. Regarding `O=c1cc(N2CCOCC2)nc(Cc2nc3cc(F)ccc3n2C2CC2)[nH]1`, the IC50 in data set [1] was 9 nM; in data set [2], over 10000 nM; in data set [3], 29 nM; in data set [4] it was 36 nM; in [5], over 10000 nM; in [6], over 10000 nM. The IC50 on Cytochrome P450 3A4 was over 40000 nM. Besides, the Papp in data set [7] turned out to be 2.2 ×10⁻⁶ cm/s. Further, the metabolised in data set [8] and in [9] was 99% each time.

On to `COCCn1c(Cc2nc(N3CCOCC3)cc(=O)[nH]2)nc2cc(F)ccc21`, for which the IC50 in [1] was 109 nM; in [2], over 10000 nM; in data set [3], 205 nM; in [4], 270 nM; in [5] it was over 10000 nM; in data set [6], over 10000 nM.

On to `O=c1cc(N2CCOCC2)nc(Cc2nc3ccccc3n2C2CCCCC2)[nH]1`, for which the IC50 in data set [1] was 142 nM; in data set [2], 8400 nM; in data set [3], 90 nM; in data set [4], 21 nM; in [5] it was over 10000 nM; in [6] it was over 10000 nM. Besides, the IC50 on Cytochrome P450 3A4 is over 40000 nM. In [7], the Papp was found to be 1.5 ×10⁻⁶ cm/s. For the same compound, the values for the metabolised in data set [8] and in data set [9] were 97% and 96%, respectively.

As for `O=c1cc(N2CCOCC2)nc(Cc2nc3ccccc3n2Cc2ccccc2)[nH]1`, the IC50 in [1] was 105 nM; in data set [2], 5720 nM; in data set [3] it was 111 nM; in data set [4], 84 nM; in data set [5], over 10000 nM; in data set [6], over 10000 nM.

Turning to `Cn1c(Cc2nc(N3CCOCC3)cc(=O)[nH]2)nc2cc(-c3ccccc3)ccc21`, the IC50 in data set [2] is over 10000 nM; in data set [3] it was over 10000 nM; in data set [4], 6750 nM; in [5], over 10000 nM; in data set [6] it was over 10000 nM.

In the case of `Cn1c(Cc2nc(N3CCOCC3)cc(=O)[nH]2)nc2ccc(-c3ccccc3)cc21`, the IC50 was 7800 nM in data set [2]; 3410 nM in [3]; 3410 nM in data set [4]; over 10000 nM in data set [5]; over 10000 nM in [6].

On to `O=c1cc(N2CCOCC2)nc(Cc2nc3c(F)cccc3o2)[nH]1`, for which the IC50 in data set [1] was 125 nM; in data set [2], over 10000 nM; in data set [3] it was 567 nM; in [4], 8450 nM; in data set [5], over 10000 nM; in data set [6], over 10000 nM.

As to `O=c1cc(N2CCOCC2)nc(Cc2nc3ccc(F)cc3o2)[nH]1`, the IC50 in data set [1] is 49 nM; in data set [2], over 10000 nM; in data set [3], 126 nM; in data set [4] it was 9040 nM; in data set [5], over 10000 nM; in [6] it was over 10000 nM.

With `O=c1cc(N2CCOCC2)nc(Cc2nc3cccc(F)c3o2)[nH]1`, the IC50 was 88 nM in [1]; over 10000 nM in [2]; 373 nM in data set [3]; 2560 nM in data set [4]; over 10000 nM in data set [5]; over 10000 nM in [6].

For `Cn1c(Cc2nc3ccccc3o2)nc(N2CCOCC2)cc1=O`, the IC50 in data set [2] was over 10000 nM; in data set [3], 1330 nM; in [6], over 10000 nM.

Regarding `Cc1cccc2oc(Cc3nc(N4CCOCC4)cc(=O)[nH]3)nc12`, the IC50 in data set [1] was 75 nM; in data set [2] it was over 10000 nM; in data set [3], 461 nM; in data set [4], 2750 nM; in data set [5] it was 3330 nM; in data set [6], over 10000 nM.

With `Cc1ccc2oc(Cc3nc(N4CCOCC4)cc(=O)[nH]3)nc2c1`, the IC50 is 233 nM in data set [1], over 10000 nM in [2], 960 nM in [3] and over 10000 nM in data set [6].

`Cc1ccc2nc(Cc3nc(N4CCOCC4)cc(=O)[nH]3)oc2c1`: the IC50 in [1] was 143 nM; in [2], 9770 nM; in data set [3], 526 nM; in [4] it was 1140 nM; in data set [5], over 10000 nM; in data set [6], over 10000 nM.

In the case of `Cc1cccc2nc(Cc3nc(N4CCOCC4)cc(=O)[nH]3)oc12`, the IC50 in data set [1] is 202 nM; in [2] it was 7150 nM; in data set [3] it was 425 nM; in data set [4], 2380 nM; in data set [5], over 10000 nM; in [6] it was over 10000 nM.

For `O=c1cc(N2CCOCC2)nc(Cc2nc3c(Br)cccc3o2)[nH]1`, the IC50 in data set [1] is 127 nM; in data set [2], over 10000 nM; in data set [3], 585 nM; in [4] it was 2270 nM; in [5], over 10000 nM; in data set [6], over 10000 nM.

As to `O=c1cc(N2CCOCC2)nc(Cc2nc3c(-c4ccccn4)cccc3o2)[nH]1`, the IC50 in data set [1] is 113 nM; in data set [2] it was 3330 nM; in data set [3], 336 nM; in data set [4], 2170 nM; in data set [5], over 10000 nM; in data set [6], over 10000 nM.

In the case of `O=c1cc(N2CCOCC2)nc(Cc2nc3c(-c4cccnc4)cccc3o2)[nH]1`, the IC50 in data set [1] was 44 nM; in data set [2] it was over 10000 nM; in data set [3] it was 156 nM; in data set [4], 335 nM; in [5], over 10000 nM; in data set [6], over 10000 nM.

Turning to `O=c1cc(N2CCOCC2)nc(Cc2nc3c(-c4ccncc4)cccc3o2)[nH]1`, the IC50 in [1] was 47 nM; in data set [2], over 10000 nM; in data set [3], 158 nM; in data set [4] it was 995 nM; in [5] it was over 10000 nM; in [6], over 10000 nM.

For the compound `O=C(Cc1nc(N2CCOCC2)cc(=O)[nH]1)Nc1ccccc1`, the IC50 in [2] was 2130 nM; in data set [3] it was 42 nM; in [4], 118 nM; in data set [5] it was over 10000 nM; in data set [6], over 10000 nM.
